This passage reports solubility results from patent US20090074824A1, “STABLE NANOCAPSULE SYSTEMS FOR THE ADMINISTRATION OF ACTIVE MOLECULES” (priority 2006, published 2009).

≈ marks a conversion by molar mass, not a printed value.

The data set can be described thus: physchem.

One may read the solubility as how much of the substance goes into solution per volume. A lower solubility goes with little dissolved substance. The compound `CCCCC(=O)O[C@]1(C(=O)CO)[C@@H](C)C[C@H]2[C@@H]3CCC4=CC(=O)C=C[C@]4(C)[C@@]3(F)[C@@H](O)C[C@@]21C` [betamethasone valerate, Betamethasone valerate] showed a solubility of 5 µg/mL (≈ 10.5 µM).
